Results on 6 compounds are retold here after PMC12119673, “Apoptotic cell death induced by copper (II), manganese (II) and silver (I) complexes containing bridging dicarboxylate and 1,10-phenanthroline ligands: one of the multi-modes of anticancer activity?” (Biometals, 2025).

What all share (format): cell-based, human
For data set [1], the system named is MCF-12A cells. Briefly: In vitro cytotoxicity assessment, alamar blue assay, 24-h exposure. To be noted: for Decrease in activity towards MCF-12A cells relative to MCF-7 cells (selectivity): IC50 MCF-12A vs IC50 MCF-7, 24 h. As for the experimental part: The MCF-7 (human breast cancer) and MCF-12A (non-tumourigenic human breast) cell lines were obtained from the Technological University Dublin (TUDublin, City Campus) internal cell bank and commercially from the American Type Culture Collection (ATCC), respectively. Both cell lines were cultured using Dulbecco’s Modified Eagle Medium/Nutrient Mixture F-12 Ham (DMEM-F12) (Sigma, Ireland) (Cat# D6421) media. The MCF-7 media was supplemented with 10% Foetal Bovine Serum (Sigma, Ireland) (Cat# F7524) and 1% L-Glutamine (Sigma, Ireland) (Cat# 592020C). The MCF-12A media was supplemented with 5% Equine Serum (Sigma, Ireland) (Cat# H0146) 1.25% L-Glutamine (Sigma, Ireland) (Cat# 592020C), 20 ng/ml Human Epidermal Growth Factor (Thermo Fisher Scientific, Ireland) (Cat# PHG0313), 0.01 mg/ml insulin (Thermo Fisher Scientific, Ireland)(Cat# 12585014) and 500 ng/ml hydrocortisone (Sigma, Ireland) (Cat# H0888). The cells were grown in T75 culture flasks (Sarstedt, Germany) (Cat# 83.3911.002) and were incubated in a 5% CO2 atmosphere at 37 ℃. The cells were monitored daily, and once 80–90% confluence was reached, they were subcultured with an enzymatic dissociation method using trypsin. Both cell lines were routinely subcultured for 1 week prior to beginning experimental work, to ensure the cells had adapted to the environment.
The MCF-7 and MCF-12A cells were seeded at a density of 1 × 10^4 in 96-well flat bottom plates (Sarstedt, Germany) (Cat# 83.3924) and incubated in a 5% CO2 atmosphere at 37 ℃ for 24 h prior to exposure to the complexes. Following the incubation period, the media was removed, and cells were washed with sterile phosphate-buffered saline (PBS). […] All agents were diluted in supplemented cell culture media, and the cells were exposed to a concentration range of 0.5 μM–100 μM for 24 h in the conditions outlined previously. Following the exposure period, the drug-containing media was removed, and cells were washed three times with PBS, ensuring complete removal of the test agents. A 5% working solution of Alamar Blue (Thermo Fisher Scientific, Ireland) (Cat# DAL1100) was prepared in dark conditions using unsupplemented cell culture media. 100 μl of the solution was added to each well, and the cells were incubated for 3 h. Following incubation, absorbance values were obtained using a Varioskan Lux (Thermo Scientific, USA) at 570 nm and 600 nm wavelengths. Each exposure was carried out in triplicate plates and was repeated three independent times.
The software packages Microsoft^Ⓡ Excel (USA) and GraphPad Prism (Ver. 10.0.3) (GraphPad, USA) were used to analyse the alamar blue data. The treated sample values were first normalised to the negative control values. After normalisation, the mean and standard deviations (SD) were established using Microsoft^Ⓡ Excel. The statistical analysis package GraphPad was then used to determine the IC25 and IC50 concentrations. […] A p value of 0.05 or lower is considered to be statistically significant.
(The colour change of resazurin is a common sign of viable cells or microbes.)

Another data set deals with MCF-7 cells. Nature of the data set: Detection of reactive oxygen species with H2DCFDA. The note with it: MCF-7, 0.78 μM to 50 μM, over a 6-h period, fold-change compared to the negative control. As for the experimental part: The production of reactive oxygen species (ROS) was detected in MCF-7 and MCF12A cells using the cell-permeant dye 2',7'- dichlorodihydrofluorescein diacetate (H2DCFDA) (Thermo Fisher Scientific, Ireland) (Cat# D399). Cells were seeded at a density of 1 × 10^4 in 96 well plates and incubated for 24 h. Post-incubation, the media was removed, and cells were washed with PBS. A 10 μM DCFH-DA working solution was prepared using cell culture media, and the cells were incubated with 100 μl of the solution in the dark for 30 min. […] Fluorescent measurements were recorded at 15 min, 30 min, 1 h, and subsequently every hour up to 6 h using a Varioskan Lux™ multimode microplate reader (Thermo Fisher Scientific, Ireland) at an excitation wavelength of 495 nm and emission of 527 nm. The assay was repeated three independent times, using three replicates per plate.
The cells were treated with a concentration range from 0.78 μM to 50 μM, and the response was measured over a 6-h period. This facilitated the evaluation of whether there was a time and/or concentration dependent response from the cells. Hydrogen peroxide (H2O2) was used as a positive control. ROS production is presented as fold-change compared to the negative control.

In data set [2] the test system is MCF-12A cells. Briefly: Apoptosis induction, Annexin V / propidium iodide flow cytometry. To be noted: IC25 concentration, 24 h. As for the experimental part: MCF-7 and MCF-12A cells were seeded at a density of 1 × 10^5 in T25 flasks (Sarstedt, Germany) and incubated for 24 h at 37 °C with 5% CO2 allowing for attachment. Post -incubation, the media was removed, cells were washed with sterile PBS and then treated using IC25 concentrations established from the in vitro cytotoxicity screen. […] After the exposure period, the cells were enzymatically detached using trypsin, collected and centrifuged at 1200RPM for 10 min. The cells were then washed with PBS, re-centrifuged and resuspended in 1 ml of annexin binding buffer. Prior to staining, the concentration of each sample was adjusted to 1 × 10^6 cells/ml. The cells were stained with 1 μl of propidium iodide (PI) (Sigma, Ireland) (Cat #P4864) and 2 μl of Annexin V (Thermo Fisher Scientific, Ireland) (Cat #A13199). The cells were incubated at room temperature for 15 min prior to analysis. The staining process was completed in the dark to eliminate interference with photo-sensitive reagents. Immediately prior to analysis by flow cytometry, 400 μl of annexin binding buffer was added to each sample. Samples were analysed using a (CytoFLEX) (Beckman Coulter, USA). The AV/PI assay was completed three independent times.
Flow cytometry data analysis was performed with the CytExpert package (Ver. 2.4) (Beckman Coulter, USA) and Microsoft^Ⓡ Excel (USA). The mean MFI and percentage cells were calculated using these packages, followed by one-way ANOVA analysis with post hoc Bonferroni correction using GraphPad Prism (Ver. 9.4) (GraphPad, USA).
The induction of apoptosis was analysed in MCF-7 and MCF-12A cells using the Annexin V and Propidium Iodide assay with flow cytometry. […] The assay allows for the differentiation of viable, apoptotic and necrotic cells based on the selective staining of Annexin V and PI. Annexin V binds to phosphatidylserines externalised to the outer leaflet of the plasma membrane during apoptosis; and PI is a membrane impermeable dye that binds to DNA of necrotic cells with compromised plasma membranes.
In general terms: A flow cytometer gives signals particle by particle.

Where [3] appears, read: MCF-12A, 24-hour exposure, per one metal centre, mean ± S.D. (N=3).
[4] abbreviates: MCF-12A, 24-hour exposure, per one metal centre, mean ± S.D. (N=3), read-out: IC50 calculated per one metal centre.
Setting [5] is: MCF-12A, 24-h exposure, 25% reduction in metabolic activity, mean ± SD (N = 3).

Like-named read-outs stand apart in the source and are kept apart here.

What is called IC50 is the concentration that inhibits the measured activity by half. In the case of `O=C([O-])CCCCCCC(=O)[O-].[Cu+2].[Cu+2].[O-][Cl+3]([O-])([O-])[O-].[O-][Cl+3]([O-])([O-])[O-].c1cnc2c(c1)ccc1cccnc12.c1cnc2c(c1)ccc1cccnc12.c1cnc2c(c1)ccc1cccnc12.c1cnc2c(c1)ccc1cccnc12` [Complex 1, [Cu2(oda)(phen)4](ClO4)2], in the data set on MCF-12A cells [1], the “Cytotoxic activity IC25 ± SD” value was 4.86 ± 1.91 µM and half-maximal inhibition (IC50) required 6.14 ± 0.37 µM. For the same compound, the “IC25 calculated per one metal centre” value with MCF-12A cells [1] (setting [3]) is on record as 9.72 ± 3.82 µM. Further, the IC50 in the data set on MCF-12A cells [1] (setting [4]) is 12.3 ± 0.74 µM. Further, the ROS production entry in the data set on MCF-7 cells is given as “moderate production of ROS”.
For the compound `O=C([O-])CCCCCCC(=O)[O-].[Cu+2].c1cnc2c(c1)ccc1cccnc12.c1cnc2c(c1)ccc1cccnc12` [Complex 2, [Cu(oda)(phen)2]], in the data set with MCF-12A cells [1] (setting [5]), the “Cytotoxic activity IC25 ± SD” value was 0.68 ± 0.13 µM. The “IC25 calculated per one metal centre” value in the data set on MCF-12A cells [1] (setting [3]) is 0.68 ± 0.13 µM. For the same compound, the IC50 in the data set on MCF-12A cells [1] (setting [4]) is 1.65 ± 0.13 µM. Moreover, the ROS production result in the data set with MCF-7 cells is “moderate production of ROS”.
`O=C([O-])CCCCCCC(=O)[O-].[Ag+].[Ag+].c1cnc2c(c1)ccc1cccnc12.c1cnc2c(c1)ccc1cccnc12.c1cnc2c(c1)ccc1cccnc12` [Complex 4, [Ag2(oda)(phen)3]]: the “Cytotoxic activity IC25 ± SD” value in the data set on MCF-12A cells [1] (setting [5]) came out at 4.91 ± 0.14 µM. The “IC25 calculated per one metal centre” value in the data set with MCF-12A cells [1] (setting [3]) is 9.82 ± 0.28 µM. Moreover, in the data set on MCF-12A cells [2], the “Apoptotic population (% cells)” value was “significant decrease in apoptotic cells” and the “Necrotic population (% cells)” value is on record as “virtually no necrotic population”. Moreover, in the data set with MCF-7 cells, the ROS production entry was “lowest production”.
For the compound `O=C([O-])CCCCCCCCCC(=O)[O-].[Ag+].[Ag+].c1cnc2c(c1)ccc1cccnc12.c1cnc2c(c1)ccc1cccnc12.c1cnc2c(c1)ccc1cccnc12` [Complex 5, [Ag2(udda)(phen)3]], the “Cytotoxic activity IC25 ± SD” value with MCF-12A cells [1] (setting [5]) is 5.52 ± 0.51 µM. In the data set with MCF-12A cells [1] (setting [3]), the “IC25 calculated per one metal centre” value is 11.04 ± 1.0 µM. In the data set with MCF-12A cells [2], the “Apoptotic population (% cells)” value is recorded as “same level of apoptosis” and the “Necrotic population (% cells)” value is “no necrotic population was observed”. Moreover, the ROS production entry in the data set on MCF-7 cells is listed as “lowest production”.
On to `c1cnc2c(c1)ccc1cccnc12` [Phen, 1,10-Phenanthroline], for which the IC50 in the data set on MCF-12A cells [1] (Homo sapiens, MCF-12A, 24 h, read-out: IC50 calculated per one metal centre) was 20.9 ± 1.96 µM. The “Cytotoxic activity IC25 ± SD” value in the data set with MCF-12A cells [1] (setting [5]) is 11.14 ± 4.39 µM. Further, the “IC25 calculated per one metal centre” value with MCF-12A cells [1] (setting [3]) is given as 11.14 ± 4.39 µM.
Consider “{[Mn2(oda)3(phen)4]^2−[Mn2(oda)(phen)4 (H2O)2]^2+} [Complex 7]”, for which the “Decrease in activity towards MCF-12A cells relative to MCF-7 cells (selectivity)” value in the data set with MCF-12A cells [1] (listed as 7) is given as “almost tenfold reduction in cytotoxicity”; in the data set on MCF-12A cells [1] (listed as complex 7), “almost tenfold decrease in activity”. The “Cytotoxic activity IC25 ± SD” value in the data set on MCF-12A cells [1] (setting [5]) worked out at 0.38 ± 0.39 µM. Also, the IC50 with MCF-12A cells [1] (MCF-12A, 24-h exposure, 50% reduction in metabolic activity, mean ± SD (N = 3), read-out: Cytotoxic activity IC50 ± SD) is 26.1 ± 7.7 µM; in the data set with MCF-12A cells [1] (setting [4]), 104 ± 30.8 µM. Further, the “IC25 calculated per one metal centre” value with MCF-12A cells [1] (setting [3]) was 1.52 ± 1.56 µM. Also, in the data set on MCF-12A cells [2], the “Apoptotic population (% cells)” value is given as “significantly diminished apoptotic population”. Besides, the “Necrotic population (% cells)” value in the data set on MCF-12A cells [2] is given as “no necrosis observed”. For the same compound, the ROS production entry with MCF-7 cells is listed as “potent inducer of ROS, eliciting the highest production in MCF-7 cells”.
